Source: patent publication US20260001914A1, “MACROCYCLIC PEPTIDES TARGETING KRAS” (Merck Sharp & Dohme LLC, priority 2022, published 2026)
*1 amine or outer side, *2 acyl side, *3 side chain or, on linkers, in order; H or OH if unused. Where a SMILES comes first, the peptide text is derived from it. [ ]: non-standard residue; d: D form. X34 = O=C(C[C@@H](Cc1ccccc1)C(=O)[*:2])C12CC(CN[*:1])(C1)C2; Ala(pyrimidin-5-yl) = N[C@@H](Cc1cncnc1)C(=O)O; X6 = O=C([C@H](Cc1cnn(C2COC2)c1)N[*:1])[*:2]; NMe3Pal(5-F) = CN[C@@H](Cc1cncc(F)c1)C(=O)O; NMePhe(3-Me) = CN[C@@H](Cc1cccc(C)c1)C(=O)O; X14 = O=C([C@H](Cc1c(F)cncc1F)N[*:1])[*:2]; X33 = O=C([C@H](Cc1ccnc(F)c1F)N[*:1])[*:2]; X37 = O=C([C@H](Cc1cnc(F)cc1F)N[*:1])[*:2]; X42 = O=C([C@H](Cc1cc(F)ncc1F)N[*:1])[*:2]; X5 = O=C([C@H](Cc1c(F)ccnc1F)N[*:1])[*:2]; Leu(4,5-dehydro) = C=C(C)C[C@H](N)C(=O)O; X24 = O=C([C@H](Cc1ccncc1Cl)N[*:1])[*:2]; X11 = CC(C)(F)CC[C@H](N[*:1])C(=O)[*:2]; X13 = O=C([C@H](Cc1ccncc1F)N[*:1])[*:2]; Nle(5,5-F2) = CC(F)(F)CC[C@H](N)C(=O)O; X28 = O=C([C@H](Cc1ncccn1)N[*:1])[*:2]; Phe(2-F) = N[C@@H](Cc1ccccc1F)C(=O)O; X1 = O=C(C12CC(CN[*:1])(C1)C2)[*:2]; Ala(cPr) = N[C@@H](CC1CC1)C(=O)O; NMeF = CN[C@@H](Cc1ccccc1)C(=O)O; PhLac = O=C(O)[C@@H](O)Cc1ccccc1; 3Pal = N[C@@H](Cc1cccnc1)C(=O)O; Cba = N[C@@H](CC1CCC1)C(=O)O; hLeu = CC(C)CC[C@H](N)C(=O)O; NMeA = CN[C@@H](C)C(=O)O; Pra = C#CC[C@H](N)C(=O)O

Target: KRAS-G12D protein (Homo sapiens, UniProt P01116, G12D)
Sequence (P01116 1-188 isoform P01116-2 G12D): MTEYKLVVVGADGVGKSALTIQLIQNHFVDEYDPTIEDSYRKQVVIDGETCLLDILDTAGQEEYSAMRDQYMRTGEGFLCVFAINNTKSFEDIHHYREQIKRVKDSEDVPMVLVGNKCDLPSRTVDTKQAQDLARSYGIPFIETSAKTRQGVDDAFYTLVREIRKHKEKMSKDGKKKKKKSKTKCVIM
Experiment: SOS-mediated nucleotide exchange assay (BODIPY-GDP / Tb-streptavidin TR-FRET)
Type: biochemical

| SMILES | EC50 |
| --- | --- |
| Cc1cccc(C[C@H]2C(=O)NCC34CC(C3)(C4)C(=O)O[C@@H](Cc3ccccc3)C(=O)N(C)[C@@H](C)C(=O)N[C@@H](Cc3cncnc3)C(=O)N[C@@H](CC3CC3)C(=O)N[C@@H](Cc3ccncc3F)C(=O)N[C@@H](CCC(C)C)C(=O)N2C)c1 [compound 279, cyclo(FLac-NMeA-PyrimAla-cPrA-4Pal2F-hL-NMePhe3Me-amBCP)] (cyclo([Ala(cPr)][X13][hLeu][NMePhe(3-Me)][X1][PhLac][NMeA][Ala(pyrimidin-5-yl)])) | 3 nM |
| CC(C)CC[C@@H]1NC(=O)[C@H](Cc2cc(F)ncc2F)NC(=O)[C@H](CC2CC2)NC(=O)[C@H](Cc2cncnc2)NC(=O)[C@H](C)N(C)C(=O)[C@H](Cc2ccccc2)OC(=O)C23CC(CNC(=O)[C@H](Cc4ccccc4)N(C)C1=O)(C2)C3 [compound 280, cyclo(FLac-NMcA-PyrimAla-cPrA-4Pal25F2-hL-NMeF-amBCP)] (cyclo([Ala(cPr)][X42][hLeu][NMeF][X1][PhLac][NMeA][Ala(pyrimidin-5-yl)])) | 4 nM |
| CC(C)CC[C@@H]1NC(=O)[C@H](Cc2ccccc2F)NC(=O)[C@H](CC2CC2)NC(=O)[C@H](Cc2ncccn2)NC(=O)[C@H](C)N(C)C(=O)[C@H](Cc2ccccc2)OC(=O)C23CC(CNC(=O)[C@H](Cc4ccccc4)N(C)C1=O)(C2)C3 [compound 281, cyclo(FLac-NMeA-2PyrimAla-cPrA-Phe2F-hL-NMeF-amBCP)] (cyclo([Ala(cPr)][Phe(2-F)][hLeu][NMeF][X1][PhLac][NMeA][X28])) | 1210 nM |
| CC(C)CC[C@@H]1NC(=O)[C@H](Cc2ccccc2F)NC(=O)[C@H](CC2CC2)NC(=O)[C@H](Cc2cncnc2)NC(=O)[C@H](C)N(C)C(=O)[C@H](Cc2ccccc2)OC(=O)C23CC(CNC(=O)[C@H](Cc4cncc(F)c4)N(C)C1=O)(C2)C3 [compound 282, cyclo(FLac-NMeA-PyrimAla-cPrA-Phe2F-hL-NMe3Pal5F-amBCP)] (cyclo([Ala(cPr)][Phe(2-F)][hLeu][NMe3Pal(5-F)][X1][PhLac][NMeA][Ala(pyrimidin-5-yl)])) | 2 nM |
| CC(C)CC[C@@H]1NC(=O)[C@H](Cc2ccccc2F)NC(=O)[C@H](CC2CC2)NC(=O)[C@H](Cc2cccnc2)NC(=O)[C@H](C)N(C)C(=O)[C@H](Cc2ccccc2)OC(=O)C23CC(CNC(=O)[C@H](Cc4cncc(F)c4)N(C)C1=O)(C2)C3 [compound 283, cyclo(FLac-NMeA-3Pal-cPrA-Phe2F-hL-NMe3Pal5F-amBCP)] (cyclo([3Pal][Ala(cPr)][Phe(2-F)][hLeu][NMe3Pal(5-F)][X1][PhLac][NMeA])) | 3 nM |
| C[C@H]1C(=O)N[C@@H](Cc2cccnc2)C(=O)N[C@@H](CC2CC2)C(=O)N[C@@H](Cc2ccccc2F)C(=O)N[C@@H](CCC(C)(C)F)C(=O)N(C)[C@@H](Cc2cncc(F)c2)C(=O)NCC23CC(C2)(C3)C(=O)O[C@@H](Cc2ccccc2)C(=O)N1C [compound 284, cyclo(FLac-NMeA-3Pal-cPrA-Phe2F-hL3F-NMe3Pal5F-amBCP)] (cyclo([3Pal][Ala(cPr)][Phe(2-F)][X11][NMe3Pal(5-F)][X1][PhLac][NMeA])) | 2 nM |
| C[C@H]1C(=O)N[C@@H](Cc2cccnc2)C(=O)N[C@@H](CC2CCC2)C(=O)N[C@@H](Cc2ccccc2F)C(=O)N[C@@H](CCC(C)(F)F)C(=O)N(C)[C@@H](Cc2cncc(F)c2)C(=O)NCC23CC(C2)(C3)C(=O)O[C@@H](Cc2ccccc2)C(=O)N1C [compound 285, cyclo(FLac-NMeA-3Pal-cBuA-Phe2F-Nle3F2-NMe3Pal5F-amBCP)] (cyclo([3Pal][Cba][Phe(2-F)][Nle(5,5-F2)][NMe3Pal(5-F)][X1][PhLac][NMeA])) | 13 nM |
| C#CC[C@@H]1NC(=O)[C@H](CC2CC2)NC(=O)[C@H](Cc2cncnc2)NC(=O)[C@H](C)N(C)C(=O)[C@H](Cc2ccccc2)OC(=O)C23CC(CNC(=O)[C@H](Cc4ccccc4)N(C)C(=O)[C@H](CCC(C)C)NC1=O)(C2)C3 [compound 286, cyclo(FLac-NMeA-PyrimAla-cPrA-Pra-hL-NMeF-amBCP)] (cyclo([Ala(cPr)][Pra][hLeu][NMeF][X1][PhLac][NMeA][Ala(pyrimidin-5-yl)])) | 1990 nM |
| C=C(C)C[C@@H]1NC(=O)[C@H](CC2CC2)NC(=O)[C@H](Cc2cncnc2)NC(=O)[C@H](C)N(C)C(=O)[C@H](Cc2ccccc2)OC(=O)C23CC(CNC(=O)[C@H](Cc4ccccc4)N(C)C(=O)[C@H](CCC(C)C)NC1=O)(C2)C3 [compound 287, cyclo(FLac-NMeA-PyrimAla-cPrA-deHLeu-hL-NMeF-amBCP)] (cyclo([Ala(cPr)][Leu(4,5-dehydro)][hLeu][NMeF][X1][PhLac][NMeA][Ala(pyrimidin-5-yl)])) | 720 nM |
| C[C@H]1C(=O)N[C@@H](Cc2cncnc2)C(=O)N[C@@H](CCC(C)(F)F)C(=O)N[C@@H](Cc2ccccc2F)C(=O)N[C@@H](CCC(C)(F)F)C(=O)N(C)[C@@H](Cc2ccccc2)C(=O)NCC23CC(C2)(C3)C(=O)O[C@@H](Cc2ccccc2)C(=O)N1C [compound 288, cyclo(FLac-NMeA-PyrimAla-Nle3F2-Phe2F-Nle3F2-NMeF-amBCP)] (cyclo([NMeA][Ala(pyrimidin-5-yl)][Nle(5,5-F2)][Phe(2-F)][Nle(5,5-F2)][NMeF][X1][PhLac])) | 247 nM |
| C[C@H]1C(=O)N[C@@H](Cc2cccnc2)C(=O)N[C@@H](CC2CC2)C(=O)N[C@@H](Cc2ccccc2F)C(=O)N[C@@H](CCC(C)(F)F)C(=O)N(C)[C@@H](Cc2ccccc2)C(=O)NCC23CC(C2)(C3)C(=O)O[C@@H](Cc2ccccc2)C(=O)N1C [compound 289, cyclo(FLac-NMeA-3Pal-cPrA-Phe2F-Nle3F2-NMeF-amBCP)] (cyclo([3Pal][Ala(cPr)][Phe(2-F)][Nle(5,5-F2)][NMeF][X1][PhLac][NMeA])) | 9 nM |
| C[C@H]1C(=O)N[C@@H](Cc2cncnc2)C(=O)N[C@@H](CC2CC2)C(=O)N[C@@H](Cc2ccccc2F)C(=O)N[C@@H](CCC(C)(F)F)C(=O)N(C)[C@@H](Cc2ccccc2)C(=O)NCC23CC(C2)(C3)C(=O)C[C@@H](Cc2ccccc2)C(=O)N1C [compound 290, cyclo(CPhe-NMeA~PyrimAla-cPrA-Phe2F-Nle3F2-NMeF-amBCP)] (cyclo([Ala(cPr)][Phe(2-F)][Nle(5,5-F2)][NMeF][X34][NMeA][Ala(pyrimidin-5-yl)])) | 2 nM |
| C[C@H]1C(=O)N[C@@H](Cc2cnn(C3COC3)c2)C(=O)N[C@@H](CC2CC2)C(=O)N[C@@H](Cc2ccccc2F)C(=O)N[C@@H](CCC(C)(F)F)C(=O)N(C)[C@@H](Cc2ccccc2)C(=O)NCC23CC(C2)(C3)C(=O)O[C@@H](Cc2ccccc2)C(=O)N1C [compound 291, cyclo(FLac-NMcA-AlaPyzlOx-cPrA-Phe2F-Nle3F2-NMeF-amBCP)] (cyclo([Ala(cPr)][Phe(2-F)][Nle(5,5-F2)][NMeF][X1][PhLac][NMeA][X6])) | 1 nM |
| CC(C)CC[C@@H]1NC(=O)[C@H](Cc2c(F)cncc2F)NC(=O)[C@H](CC2CC2)NC(=O)[C@H](Cc2cncnc2)NC(=O)[C@H](C)N(C)C(=O)[C@H](Cc2ccccc2)OC(=O)C23CC(CNC(=O)[C@H](Cc4ccccc4)N(C)C1=O)(C2)C3 [compound 292, cyclo(FLac-NMeA-PyrimAla-cPrA-4Pal26F2-hL-NMeF-amBCP)] (cyclo([Ala(cPr)][X14][hLeu][NMeF][X1][PhLac][NMeA][Ala(pyrimidin-5-yl)])) | 64 nM |
| CC(C)CC[C@@H]1NC(=O)[C@H](Cc2ccnc(F)c2F)NC(=O)[C@H](CC2CC2)NC(=O)[C@H](Cc2cncnc2)NC(=O)[C@H](C)N(C)C(=O)[C@H](Cc2ccccc2)OC(=O)C23CC(CNC(=O)[C@H](Cc4ccccc4)N(C)C1=O)(C2)C3 [compound 293, cyclo(FLac-NMeA-PyrimAla-cPrA-4Pal23F2-hL-NMeF-amBCP)] (cyclo([Ala(cPr)][X33][hLeu][NMeF][X1][PhLac][NMeA][Ala(pyrimidin-5-yl)])) | 259 nM |
| CC(C)CC[C@@H]1NC(=O)[C@H](Cc2cnc(F)cc2F)NC(=O)[C@H](CC2CC2)NC(=O)[C@H](Cc2cncnc2)NC(=O)[C@H](C)N(C)C(=O)[C@H](Cc2ccccc2)OC(=O)C23CC(CNC(=O)[C@H](Cc4ccccc4)N(C)C1=O)(C2)C3 [compound 294, cyclo(FLac-NMeA-PyrimAla-cPrA-3Pal46F2-hL-NMeF-amBCP)] (cyclo([Ala(cPr)][X37][hLeu][NMeF][X1][PhLac][NMeA][Ala(pyrimidin-5-yl)])) | 7 nM |
| CC(C)CC[C@@H]1NC(=O)[C@H](Cc2c(F)ccnc2F)NC(=O)[C@H](CC2CC2)NC(=O)[C@H](Cc2cncnc2)NC(=O)[C@H](C)N(C)C(=O)[C@H](Cc2ccccc2)OC(=O)C23CC(CNC(=O)[C@H](Cc4ccccc4)N(C)C1=O)(C2)C3 [compound 295, cyclo(FLac-NMeA-PyrimAla-cPrA-3Pal26F2-hL-NMeF-amBCP)] (cyclo([Ala(cPr)][X5][hLeu][NMeF][X1][PhLac][NMeA][Ala(pyrimidin-5-yl)])) | 63 nM |
| CC(C)CC[C@@H]1NC(=O)[C@H](Cc2ccncc2Cl)NC(=O)[C@H](CC2CC2)NC(=O)[C@H](Cc2cncnc2)NC(=O)[C@H](C)N(C)C(=O)[C@H](Cc2ccccc2)OC(=O)C23CC(CNC(=O)[C@H](Cc4ccccc4)N(C)C1=O)(C2)C3 [compound 298, cyclo(FLac-NMeA-PyrimAla-cPrA-4Pal2Cl-hL-NMeF-amBCP)] (cyclo([Ala(cPr)][X24][hLeu][NMeF][X1][PhLac][NMeA][Ala(pyrimidin-5-yl)])) | 11 nM |
| C[C@H]1C(=O)N[C@@H](Cc2cncnc2)C(=O)N[C@@H](CC2CC2)C(=O)N[C@@H](Cc2ccncc2Cl)C(=O)N[C@@H](CCC(C)(C)F)C(=O)N(C)[C@@H](Cc2ccccc2)C(=O)NCC23CC(C2)(C3)C(=O)O[C@@H](Cc2ccccc2)C(=O)N1C [compound 299, cyclo(FLac-NMeA-PyrimAla-cPrA-4Pal2Cl-hL3F-NMeF-amBCP)] (cyclo([Ala(cPr)][X24][X11][NMeF][X1][PhLac][NMeA][Ala(pyrimidin-5-yl)])) | 6.3 nM |
| CC(C)CC[C@@H]1NC(=O)[C@H](Cc2cnn(C3COC3)c2)NC(=O)[C@H](CC2CC2)NC(=O)[C@H](Cc2cncnc2)NC(=O)[C@H](C)N(C)C(=O)[C@H](Cc2ccccc2)OC(=O)C23CC(CNC(=O)[C@H](Cc4ccccc4)N(C)C1=O)(C2)C3 [compound 300, cyclo(FLac-NMeA-PyrimAla-cPrA-AlaPyz1Ox-hL-NMeF-amBCP)] (cyclo([Ala(cPr)][X6][hLeu][NMeF][X1][PhLac][NMeA][Ala(pyrimidin-5-yl)])) | 254 nM |
